Measurements: patent publication US10316049B2, “Tank-binding kinase inhibitor compounds” (Gilead Sciences, Inc., priority 2015, dated 2019)

How the values were obtained:
TBK1 = biological target: T1, TBK1 (Homo sapiens, UniProt Q9UHD2); assay: TR-FRET enzymatic activity assay, TBK1; type: biochemical; further: full length recombinant TBK1 at 2.5 nM
T1 construct: TBK1 and IKKε were expressed and purified as full length recombinant proteins; made in house
T1 sequence (Q9UHD2 1-729): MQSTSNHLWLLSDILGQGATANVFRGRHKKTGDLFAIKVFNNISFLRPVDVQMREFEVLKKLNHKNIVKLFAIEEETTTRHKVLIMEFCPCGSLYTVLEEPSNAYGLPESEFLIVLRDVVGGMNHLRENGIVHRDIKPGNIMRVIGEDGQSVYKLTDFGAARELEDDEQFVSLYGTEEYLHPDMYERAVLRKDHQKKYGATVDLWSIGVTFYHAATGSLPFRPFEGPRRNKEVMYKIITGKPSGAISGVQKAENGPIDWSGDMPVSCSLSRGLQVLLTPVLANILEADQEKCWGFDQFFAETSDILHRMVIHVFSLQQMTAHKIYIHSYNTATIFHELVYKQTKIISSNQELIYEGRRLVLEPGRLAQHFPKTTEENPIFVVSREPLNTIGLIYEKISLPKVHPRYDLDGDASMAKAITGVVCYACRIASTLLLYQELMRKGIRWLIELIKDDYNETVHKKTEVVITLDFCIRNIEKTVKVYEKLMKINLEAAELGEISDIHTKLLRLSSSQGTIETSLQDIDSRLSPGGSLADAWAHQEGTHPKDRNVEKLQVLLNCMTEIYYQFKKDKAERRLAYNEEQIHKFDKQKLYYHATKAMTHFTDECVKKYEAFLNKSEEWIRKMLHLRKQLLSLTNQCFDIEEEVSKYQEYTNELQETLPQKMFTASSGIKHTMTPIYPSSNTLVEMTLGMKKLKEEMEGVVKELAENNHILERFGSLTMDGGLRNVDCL
In short: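 Full-length recombinant enzymes phosphorylated a biotinylated Ser/Thr peptide for 240 min at 25 °C, stopped with EDTA. Phosphopeptide detected by TR-FRET (streptavidin XL665, Eu-cryptate anti-phospho antibody). IC50 from four-parameter fits normalized to 1 μM staurosporine and DMSO controls, as geometric means of at least four determinations.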

IKKε = biological target: T2, IKKε (Homo sapiens, UniProt Q14164); assay: TR-FRET enzymatic activity assay, IKKε; type: biochemical; settings: read-out: IKKϵ IC50; further: full length recombinant IKKε at 0.3 nM
T2 construct: TBK1 and IKKε were expressed and purified as full length recombinant proteins; made in house
T2 sequence (Q14164 1-716): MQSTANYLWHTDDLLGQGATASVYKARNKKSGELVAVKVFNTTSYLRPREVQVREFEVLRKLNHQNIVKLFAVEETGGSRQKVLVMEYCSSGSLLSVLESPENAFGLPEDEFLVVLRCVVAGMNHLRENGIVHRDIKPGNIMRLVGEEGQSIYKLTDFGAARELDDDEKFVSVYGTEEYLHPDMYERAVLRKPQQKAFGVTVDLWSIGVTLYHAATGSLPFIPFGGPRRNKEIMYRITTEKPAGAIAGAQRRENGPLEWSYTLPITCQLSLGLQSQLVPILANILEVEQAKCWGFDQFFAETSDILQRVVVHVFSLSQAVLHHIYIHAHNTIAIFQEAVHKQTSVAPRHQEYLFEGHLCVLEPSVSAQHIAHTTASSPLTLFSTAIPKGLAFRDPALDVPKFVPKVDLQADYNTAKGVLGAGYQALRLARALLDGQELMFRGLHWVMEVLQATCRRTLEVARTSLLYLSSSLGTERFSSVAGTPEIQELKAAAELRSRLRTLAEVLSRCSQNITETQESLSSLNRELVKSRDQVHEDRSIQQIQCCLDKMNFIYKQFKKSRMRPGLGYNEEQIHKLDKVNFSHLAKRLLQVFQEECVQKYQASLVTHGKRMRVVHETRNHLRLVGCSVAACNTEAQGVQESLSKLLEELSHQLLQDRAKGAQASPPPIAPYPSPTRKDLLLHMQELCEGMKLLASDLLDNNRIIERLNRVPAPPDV
In short: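 Full-length recombinant IKKε phosphorylated a biotinylated Ser/Thr peptide for 240 min at 25 °C; EDTA stop. Phospho-peptide detected by TR-FRET with streptavidin-XL665 (125 nM) and Eu-cryptate anti-phospho antibody. Normalised to staurosporine and DMSO controls; IC50 from four-parameter fit, geometric mean of ≥4 runs.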

Structure (SMILES): Cn1cc([C@@H]2C[C@H]2C(=O)Nc2cc(-c3ccc(O[C@H]4CCN(C(=O)CO)C[C@H]4F)c(C#N)c3)ncn2)cn1 [Example 143, (1,2-Trans)-N-(6-(3-cyano-4-(((3R,4S)-3-fluoro-1-(2-hydroxyacetyl)piperidin-4-yl)oxy)phenyl)pyrimidin-4-yl)-2-(1-methyl-1H-pyrazol-4-yl)cyclopropane-1-carboxamide]
- IC50 (TBK1): 19.9 nM
- IC50 (IKKε): 44.3 nM

Structure (SMILES): N#Cc1cc(-c2ccnc(NC(=O)[C@H]3C[C@@H]3C(F)F)c2)ccc1OC1CCOCC1 (relative stereo) [Example 101, (1,2-trans)-N-(4-(3-cyano-4-((tetrahydro-2H-pyran-4-yl)oxy)phenyl)pyridin-2-yl)-2-(difluoromethyl)cyclopropane-1-carboxamide]
- IC50 (TBK1): 96.8 nM
- IC50 (IKKε): > 1000 nM

Structure (SMILES): N#Cc1cc(-c2ccnc(NC(=O)[C@@H]3C[C@H]3C#N)c2)ccc1OC1CCOCC1 (relative stereo) [Example 116, (1,2-Trans)-2-cyano-N-(4-(3-cyano-4-((tetrahydro-2H-pyran-4-yl)oxy)phenyl)pyridin-2-yl)cyclopropane-1-carboxamide]
- IC50 (TBK1): 181 nM
- IC50 (IKKε): 471 nM

Structure (SMILES): N#Cc1cc(-c2ccnc(NC(=O)[C@H]3C[C@@H]3[N+](=O)[O-])c2)ccc1OC1CCOCC1 (relative stereo) [Example 86, (1,2 trans)-N-(4-(3-cyano-4-((tetrahydro-2H-pyran-4-yl)oxy)phenyl)pyridin-2-yl)-2-nitrocyclopropane-1-carboxamide]
- IC50 (TBK1): 529 nM
- IC50 (IKKε): 314 nM

Structure (SMILES): N#Cc1cc(-c2ccnc(NC(=O)[C@@H]3C[C@H]3c3cccnc3)c2)ccc1O[C@H]1CCN(C(=O)CO)C[C@H]1F [Example 135, (1R,2R)—N-(4-(3-cyano-4-(((3R,4S)-3-fluoro-1-(2-hydroxyacetyl)piperidin-4-yl)oxy)phenyl)pyridin-2-yl)-2-(pyridin-3-yl)cyclopropane-1-carboxamide]
- IC50 (TBK1): 21.4 nM
- IC50 (IKKε): 27.4 nM

Structure (SMILES): N#Cc1cc(-c2ccnc(NC(=O)[C@@H]3C[C@H]3CO)c2)ccc1OC1CCOCC1 (relative stereo) [Example 42, (1,2-trans)-N-(4-(3-cyano-4-((tetrahydro-2H-pyran-4-yl)oxy)phenyl)pyridin-2-yl)-2-(hydroxymethyl)cyclopropane-1-carboxamide]
- IC50 (TBK1): 62.1 nM
- IC50 (IKKε): 48.2 nM

Structure (SMILES): N#Cc1cc(-c2ccnc(NC(=O)[C@@H]3C[C@H]3c3cncnc3)c2)ccc1O[C@H]1CCN(C(=O)CO)C[C@H]1F [Example 149, (1,2-Trans)-N-(4-(3-cyano-4-(((3R,4S)-3-fluoro-1-(2-hydroxyacetyl)piperidin-4-yl)oxy)phenyl)pyridin-2-yl)-2-(pyrimidin-5-yl)cyclopropane-1-carboxamide]
- IC50 (TBK1): 15.9 nM
- IC50 (IKKε): 99.2 nM

Structure (SMILES): C[C@@H]1CCCN1c1ccc(-c2ccnc(NC(=O)C3CC3)c2)cc1C#N [Example 96, (R)—N-(4-(3-cyano-4-(2-methylpyrrolidin-1-yl)phenyl)pyridin-2-yl)cyclopropanecarboxamide]
- IC50 (TBK1): 33 nM
- IC50 (IKKε): 231 nM

Structure (SMILES): N#Cc1cc(-c2cc(NC(=O)C3CC3)ncn2)ccc1O[C@H]1CCN(C(=O)[C@@H](O)CO)C[C@H]1F [Example 21, N-(6-(3-cyano-4-(((3R,4S)-1-((S)-2,3-dihydroxypropanoyl)-3-fluoropiperidin-4-yl)oxy)phenyl)pyrimidin-4-yl)cyclopropanecarboxamide]
- IC50 (TBK1): 6.1 nM
- IC50 (IKKε): 31.3 nM

Structure (SMILES): N#CCC(=O)N1CC[C@H](Oc2ccc(-c3cc(NC(=O)C4CC4)ncn3)cc2C#N)C(F)(F)C1 [Example 153, (S)—N-(6-(3-cyano-4-((1-(2-cyanoacetyl)-3,3-difluoropiperidin-4-yl)oxy)phenyl)pyrimidin-4-yl)cyclopropanecarboxamide]
- IC50 (TBK1): 23.6 nM
- IC50 (IKKε): 140 nM

Structure (SMILES): N#Cc1cc(-c2ccnc(NC(=O)[C@@H]3C[C@H]3c3ccno3)c2)ccc1OC1CCOCC1 (relative stereo) [Example 102, trans-1,2-N-(4-(3-cyano-4-((tetrahydro-2H-pyran-4-yl)oxy)phenyl)pyridin-2-yl)-2-(isoxazol-5-yl)cyclopropane-1-carboxamide]
- IC50 (TBK1): 33.4 nM
- IC50 (IKKε): 196 nM

Structure (SMILES): N#Cc1cc(-c2ccnc(NC(=O)C3(O)CC3)c2)ccc1OC1CCOCC1 [Example 36, N-(4-(3-cyano-4-((tetrahydro-2H-pyran-4-yl)oxy)phenyl)pyridin-2-yl)-1-hydroxycyclopropanecarboxamide]
- IC50 (TBK1): > 1000 nM
- IC50 (IKKε): > 1000 nM

Structure (SMILES): CC1CC1C(=O)Nc1cc(-c2ccc(O[C@H]3CCN(C(=O)CO)C[C@H]3F)c(C#N)c2)ccn1 (stereo partly drawn) [Example 70, N-(4-(3-Cyano-4-(((3R,4S)-3-fluoro-1-(2-hydroxyacetyl)piperidin-4-yl)oxy)phenyl)pyridin-2-yl)-2-methylcyclopropanecarboxamide]
- IC50 (TBK1): 8.9 nM
- IC50 (IKKε): 26.1 nM

Structure (SMILES): CCOC(=O)[C@@H]1C[C@H]1C(=O)Nc1cc(-c2ccc(OC3CCOCC3)c(C#N)c2)ccn1 (relative stereo) [Example 50, Ethyl trans-2-((4-(3-cyano-4-((tetrahydro-2H-pyran-4-yl)oxy)phenyl)pyridin-2-yl)carbamoyl)cyclopropane-1-carboxylate]
- IC50 (TBK1): 230 nM
- IC50 (IKKε): 535 nM

Structure (SMILES): N#Cc1cc(-c2ccnc(NC(=O)[C@H]3C[C@@H]3c3cccnc3)c2)ccc1O[C@H]1CCN(C(=O)[C@@H](O)CO)CC1(F)F [Example 140, (1S, 2S)—N-(4-(3-cyano-4-(((S)-1-((S)-2,3-dihydroxypropanoyl)-3,3-difluoropiperidin-4-yl)oxy)phenyl)pyridin-2-yl)-2-(pyridin-3-yl)cyclopropane-1-carboxamide]
- IC50 (TBK1): 4.6 nM
- IC50 (IKKε): 5.9 nM

Structure (SMILES): N#Cc1cc(-c2ccnc(NC(=O)[C@@H]3C[C@H]3C(=O)NCCO)c2)ccc1OC1CCOCC1 (relative stereo) [Example 46, (1,2-trans)-N1-(4-(3-cyano-4-((tetrahydro-2H-pyran-4-yl)oxy)phenyl)pyridin-2-yl)-N2-(2-hydroxyethyl)cyclopropane-1,2-dicarboxamide]
- IC50 (TBK1): 302 nM
- IC50 (IKKε): 429 nM

Structure (SMILES): N#Cc1cc(-c2ccnc(NC(=O)[C@@H]3C[C@H]3c3cccnc3)c2)ccc1O[C@H]1CCN(C(=O)CO)CC1(F)F [Example 141, (1R,2R)—N-(4-(3-cyano-4-(((S)-3,3-difluoro-1-(2-hydroxyacetyl)piperidin-4-yl)oxy)phenyl)pyridin-2-yl)-2-(pyridin-3-yl)cyclopropane-1-carboxamide]
- IC50 (TBK1): 17.3 nM
- IC50 (IKKε): 11.2 nM

Structure (SMILES): N#Cc1cc(-c2cc(NC(=O)C3CC3)ncn2)ccc1O[C@H]1CCN(C=O)C[C@H]1F [Example 29, N-(6-(3-cyano-4-(((3R,4S)-3-fluoro-1-formylpiperidin-4-yl)oxy)phenyl)pyrimidin-4-yl)cyclopropanecarboxamide]
- IC50 (TBK1): 46.6 nM
- IC50 (IKKε): 128 nM

Structure (SMILES): C[C@@H]1C[C@H]1C(=O)Nc1cc(-c2ccc(O[C@H]3CCN(C(=O)CO)C[C@H]3F)c(C#N)c2)ccn1 [Example 72, (1R,2R)—N-(4-(3-cyano-4-(((3R,4S)-3-fluoro-1-(2-hydroxyacetyl)piperidin-4-yl)oxy)phenyl)pyridin-2-yl)-2-methylcyclopropane-1-carboxamide]
- IC50 (TBK1): 16.5 nM
- IC50 (IKKε): 43.7 nM

Structure (SMILES): N#Cc1cc(-c2ccnc(NC(=O)C3CC3)c2)ccc1O[C@H]1CCN(C(=O)CO)C[C@H]1F [Example 8, N-(4-(3-cyano-4-(((3R,4S)-3-fluoro-1-(2-hydroxyacetyl)piperidin-4-yl)oxy)phenyl)pyridin-2-yl)cyclopropanecarboxamide]
- IC50 (TBK1): 10.4 nM
- IC50 (IKKε): 25.1 nM
